Measurements: ChEMBL document CHEMBL3885861, “Open TG-GATES”

Species on record: Rattus norvegicus
Assay: Open TG-GATES - Regimen: Daily Repeat
Type: toxicity, organism-based, Sprague-Dawley
Parameters: regimen Daily Repeat, gender Male, age 6 weeks
Conditions: in vivo, po, 0 mg/kg, route gavage, dose level Control; for APTT / Bas / Eos / Fbg / Hb / Ht / Lym / MCH / MCHC / MCV / Mono / Neu / PT / Plat / RBC / Ret / WBC: tissue Blood; for LIVER: tissue Liver; for A/G / ALP / ALT / AST / BUN / CRE / Ca / Cl / DBIL / GLC / IP / K / LDH / Na / PL / RALB / TBIL / TC / TG / TP / gamma-GTP: tissue Plasma

Structure (SMILES): O=[N+]([O-])c1ccc(O)c([N+](=O)[O-])c1 [2,4-DINITROPHENOL]
- TERMINAL_BW (72 h, time 3 day): 246.4 g
- APTT (72 h, time 3 day): 16.7 s
- Bas (72 h, time 3 day): 0%
- Eos (72 h, time 3 day): 1.2%
- Fbg (72 h, time 3 day): 265 mg/dL
- Hb (72 h, time 3 day): 12.8 g/dL
- Ht (72 h, time 3 day): 38.3%
- Lym (72 h, time 3 day): 74.4%
- MCH (72 h, time 3 day): 21.4 pg
- MCHC (72 h, time 3 day): 33.5%
- MCV (72 h, time 3 day): 64 fL
- Mono (72 h, time 3 day): 4.8%
- Neu (72 h, time 3 day): 19.8%
- PT (72 h, time 3 day): 11.6 s
- Plat (72 h, time 3 day): 131.4 x10_4/uL
- RBC (72 h, time 3 day): 599.4 x10_4/ul
- Ret (72 h, time 3 day): 6%
- WBC (72 h, time 3 day): 119.4 x10_2/uL
- LIVER (72 h, time 3 day): 11.9 g
- A/G (72 h, time 3 day): 2.3
- ALP (72 h, time 3 day): 1481 IU/L
- ALT (72 h, time 3 day): 33.8 IU/L
- AST (72 h, time 3 day): 62.6 IU/L
- BUN (72 h, time 3 day): 15.6 mg/dL
- CRE (72 h, time 3 day): 0.4 mg/dL
- Ca (72 h, time 3 day): 11.6 mg/dL
- Cl (72 h, time 3 day): 103.2 meq/L
- DBIL (72 h, time 3 day): 0.01 mg/dL
- GLC (72 h, time 3 day): 183 mg/dL
- IP (72 h, time 3 day): 7.4 mg/dL
- K (72 h, time 3 day): 4.7 meq/L
- LDH (72 h, time 3 day): 91.6 IU/L
- Na (72 h, time 3 day): 138.2 meq/L
- PL (72 h, time 3 day): 156.2 mg/dL
- RALB (72 h, time 3 day): 3.9 g/dL
- TBIL (72 h, time 3 day): 0.034 mg/dL
- TC (72 h, time 3 day): 84.2 mg/dL
- TG (72 h, time 3 day): 137 mg/dL
- TP (72 h, time 3 day): 5.6 g/dL
- gamma-GTP (72 h, time 3 day): 0.8 IU/L
- TERMINAL_BW ([…], time 7 day): 271.5 g
- TERMINAL_BW ([…], time 14 day): 341.5 g
- TERMINAL_BW ([…], time 28 day): 452.7 g
- APTT ([…], time 7 day): 16 s
- Bas ([…], time 7 day): 0%
- Eos ([…], time 7 day): 1%
- Fbg ([…], time 7 day): 247 mg/dL
- Hb ([…], time 7 day): 13.5 g/dL
- Ht ([…], time 7 day): 39.8%
- Lym ([…], time 7 day): 77.2%
- MCH ([…], time 7 day): 21.5 pg
- MCHC ([…], time 7 day): 33.9%
- MCV ([…], time 7 day): 63.4 fL
- Mono ([…], time 7 day): 5%
- Neu ([…], time 7 day): 16.8%
- PT ([…], time 7 day): 11.6 s
- Plat ([…], time 7 day): 133.8 x10_4/uL
- RBC ([…], time 7 day): 629 x10_4/ul
- Ret ([…], time 7 day): 5%
- WBC ([…], time 7 day): 101.8 x10_2/uL
- APTT ([…], time 14 day): 16.5 s
- Bas ([…], time 14 day): 0%
- Eos ([…], time 14 day): 1%
- Fbg ([…], time 14 day): 243.2 mg/dL
- Hb ([…], time 14 day): 13.8 g/dL
- Ht ([…], time 14 day): 40.7%
- Lym ([…], time 14 day): 73%
- MCH ([…], time 14 day): 20.9 pg
- MCHC ([…], time 14 day): 33.9%
- MCV ([…], time 14 day): 61.7 fL
- Mono ([…], time 14 day): 5%
- Neu ([…], time 14 day): 21%
- PT ([…], time 14 day): 11.6 s
- Plat ([…], time 14 day): 130 x10_4/uL
- RBC ([…], time 14 day): 660.8 x10_4/ul
- Ret ([…], time 14 day): 3.9%
- WBC ([…], time 14 day): 124.2 x10_2/uL
- APTT ([…], time 28 day): 15.9 s
- Bas ([…], time 28 day): 0%
- Eos ([…], time 28 day): 1%
- Fbg ([…], time 28 day): 278.4 mg/dL
- Hb ([…], time 28 day): 14.8 g/dL
- Ht ([…], time 28 day): 43.5%
- Lym ([…], time 28 day): 78.4%
- MCH ([…], time 28 day): 19.6 pg
- MCHC ([…], time 28 day): 34%
- MCV ([…], time 28 day): 57.7 fL
- Mono ([…], time 28 day): 5.6%
- Neu ([…], time 28 day): 15.4%
- PT ([…], time 28 day): 11.6 s
- Plat ([…], time 28 day): 117.2 x10_4/uL
- RBC ([…], time 28 day): 754.6 x10_4/ul
- Ret ([…], time 28 day): 2.8%
- WBC ([…], time 28 day): 107.4 x10_2/uL
- LIVER ([…], time 7 day): 13.1 g
- LIVER ([…], time 14 day): 16.5 g
- LIVER ([…], time 28 day): 19.9 g
- A/G ([…], time 7 day): 2.2
- ALP ([…], time 7 day): 1556.6 IU/L
- ALT ([…], time 7 day): 38.6 IU/L
- AST ([…], time 7 day): 68.8 IU/L
- BUN ([…], time 7 day): 18.2 mg/dL
- CRE ([…], time 7 day): 0.4 mg/dL
- Ca ([…], time 7 day): 11.4 mg/dL
- Cl ([…], time 7 day): 105.8 meq/L
- DBIL ([…], time 7 day): 0.014 mg/dL
- GLC ([…], time 7 day): 182.2 mg/dL
- IP ([…], time 7 day): 7.7 mg/dL
- K ([…], time 7 day): 4.7 meq/L
- LDH ([…], time 7 day): 107 IU/L
- Na ([…], time 7 day): 141.2 meq/L
- PL ([…], time 7 day): 154.8 mg/dL
- RALB ([…], time 7 day): 3.8 g/dL
- TBIL ([…], time 7 day): 0.028 mg/dL
- TC ([…], time 7 day): 80 mg/dL
- TG ([…], time 7 day): 162.4 mg/dL
- TP ([…], time 7 day): 5.5 g/dL
- gamma-GTP ([…], time 7 day): 0.8 IU/L
- A/G ([…], time 14 day): 2
- ALP ([…], time 14 day): 1126.4 IU/L
- ALT ([…], time 14 day): 33.4 IU/L
- AST ([…], time 14 day): 59.6 IU/L
- BUN ([…], time 14 day): 18.4 mg/dL
- CRE ([…], time 14 day): 0.3 mg/dL
- Ca ([…], time 14 day): 11.4 mg/dL
- Cl ([…], time 14 day): 104.2 meq/L
- DBIL ([…], time 14 day): 0.012 mg/dL
- GLC ([…], time 14 day): 186 mg/dL
- IP ([…], time 14 day): 7.4 mg/dL
- K ([…], time 14 day): 4.6 meq/L
- LDH ([…], time 14 day): 101.6 IU/L
- Na ([…], time 14 day): 136.8 meq/L
- PL ([…], time 14 day): 151.4 mg/dL
- RALB ([…], time 14 day): 4 g/dL
- TBIL ([…], time 14 day): 0.024 mg/dL
- TC ([…], time 14 day): 72.8 mg/dL
- TG ([…], time 14 day): 182 mg/dL
- TP ([…], time 14 day): 6 g/dL
- gamma-GTP ([…], time 14 day): 0 IU/L
- A/G ([…], time 28 day): 1.8
- ALP ([…], time 28 day): 930.8 IU/L
- ALT ([…], time 28 day): 30.8 IU/L
- AST ([…], time 28 day): 58.6 IU/L
- BUN ([…], time 28 day): 20.2 mg/dL
- CRE ([…], time 28 day): 0.5 mg/dL
- Ca ([…], time 28 day): 11.2 mg/dL
- Cl ([…], time 28 day): 103.4 meq/L
- DBIL ([…], time 28 day): 0.016 mg/dL
- GLC ([…], time 28 day): 195.4 mg/dL
- IP ([…], time 28 day): 7.2 mg/dL
- K ([…], time 28 day): 4.4 meq/L
- LDH ([…], time 28 day): 108.8 IU/L
- Na ([…], time 28 day): 140.6 meq/L
- PL ([…], time 28 day): 161.6 mg/dL
- RALB ([…], time 28 day): 4 g/dL
- TBIL ([…], time 28 day): 0.036 mg/dL
- TC ([…], time 28 day): 79.8 mg/dL
- TG ([…], time 28 day): 228.8 mg/dL
- TP ([…], time 28 day): 6.2 g/dL
- gamma-GTP ([…], time 28 day): 0.4 IU/L
